Measurements from patent US4999436A, “Aryl-substituted thiophene 3-ols, derivatives and analogs useful as lipoxgenase inhibitors” (Merck & Co., Inc., priority 1989, dated 1991).
pIC50: −log10 of the molar value. Values joined by “and” are separate entries in the source; they are usually repeats but may differ in a detail not shown here. Equal entries are not always repeated.

Experiments:
5-lipoxygenase = target: T1, 5-lipoxygenase (Rattus norvegicus, UniProt P12527); experiment: PMN5LO assay: inhibition of LTB4 production in A23187-stimulated rat peritoneal PMN (RIA); format: cell-based; details: for pIC50: estimated concentration required for 50% inhibition
T1 construct: endogenous in cells; host or cells: casein-elicited peritoneal polymorphonuclear leukocytes of male Sprague-Dawley rats
T1 sequence (P12527 1-673): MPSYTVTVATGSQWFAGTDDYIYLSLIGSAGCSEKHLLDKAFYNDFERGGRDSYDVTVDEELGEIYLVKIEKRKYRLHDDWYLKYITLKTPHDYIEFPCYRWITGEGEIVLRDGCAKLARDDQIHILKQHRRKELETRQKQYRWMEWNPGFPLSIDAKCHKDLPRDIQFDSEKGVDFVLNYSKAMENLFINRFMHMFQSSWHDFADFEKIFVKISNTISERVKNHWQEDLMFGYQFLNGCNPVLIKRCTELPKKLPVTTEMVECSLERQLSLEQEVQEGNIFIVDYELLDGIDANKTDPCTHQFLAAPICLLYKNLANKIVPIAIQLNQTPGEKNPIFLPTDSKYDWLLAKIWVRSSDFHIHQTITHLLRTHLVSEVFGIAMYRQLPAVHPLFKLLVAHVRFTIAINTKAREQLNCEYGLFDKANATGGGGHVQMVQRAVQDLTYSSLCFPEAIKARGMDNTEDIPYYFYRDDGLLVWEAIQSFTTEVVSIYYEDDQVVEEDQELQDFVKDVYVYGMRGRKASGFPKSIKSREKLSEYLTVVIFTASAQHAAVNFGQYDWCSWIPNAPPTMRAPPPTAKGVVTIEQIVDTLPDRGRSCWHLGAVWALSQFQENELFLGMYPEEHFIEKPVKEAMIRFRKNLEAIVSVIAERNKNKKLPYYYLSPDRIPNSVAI
Method: (§1) Two screening methods were employed for the purposes of evaluating the biological activities of the compounds of the present invention. The PMN5LO assay is a direct measure of the capacity to inhibit 5-lipoxygenase. The second protocol, RSVM-CO, is a method of determining inhibition of cyclooxygenase enzyme activity and as such it serves as a negative control.
Elicition of Rat Peritoneal polymorphonuclear leukoytes (PMN)
Male Sprague-Dawley rats (about 350 grams) were injected intraperitoneally the day before use with 8 ml of 12% sodium caseinate. The next day the animals were killed by CO2 asphyxiation and the peritoneal cavity lavaged twice with 20 ml of Hanks balanced salts containing 15 mM HEPES (pH 7.4), 1.4 mM Ca^++ and 0.7 mM Mg^++ (Hepes-Hanks). The suspensions were filtered through plastic mesh and centrifuged at […] for 5 minutes. The cells were resuspended in 50 ml Hepes-Hanks and recentrifuged. The PMN pellets were combined and suspended at 1.25×10^7 cells/ml.
The cell suspension was then diluted 1:10, preincubated 5 minutes at 37° C. and distributed in 200 μl aliquots in the wells of 96 well microtiter plates. The wells had previously received samples of the compounds of the present invention, controls, etc., in 25 μl of 0.001% fatty acidfree BSA in Hepes-Hanks. The plates were incubated 2 minutes at 37° C. and then the cells were stimulated to produce LTB4 by the addition of 25 μl of 100 μM calcium ionophore, designated A23187. After 4 minutes at 37° C. the plates were frozen in dry ice.
Radioimmunoassay (RIA) of LTB4
The frozen plates were thawed to 4° C. and 25 μl aliquots removed to V well plates. Antibody to LTB4 (50 μl) was added and, after 15 minutes at room temperature, 50 μl of ^3 H-LTB4 was added and the plates were stored overnight at 4° C. to allow equilibration. The next day the "free" 3H-LTB4 was removed by adsorption to dextran coated charcoal [90 μl per well of a 4% charcoal suspension with 0.25% Dextran T-70 in 10 mM potassium phosphate (pH 7.3) containing lmM EDTA and 0.25 mM thimerasol] during a 10 minute ice temperature incubation. The charcoal was removed by a 10 minute centrifugation at 200 sg. Aliquots of the supernatant were counted in a Packard 460, analyzed in a Masscomp computer and the data drawn up as % inhibition of LTB4 production.

cyclooxygenase = target: T2, cyclooxygenase (Ovis aries, UniProt P05979); experiment: RSVM-CO: Ram Seminal Vesicle Microsomal Cyclooxygenase assay; format: biochemical; details: for inhibition at 0.01 µg/mL: 0.01 μg/ml; for inhibition at 0.1 µg/mL: 0.1 μg/ml; for inhibition at 1 µg/mL: 1 μg/ml; for inhibition at 10 µg/mL: 10 μg/ml
T2 construct: Ram seminal vesicular glands were trimmed of fat; from tissue; host or cells: ram seminal vesicular glands, microsomal pellet (105K xg)
T2 sequence (P05979 25-600): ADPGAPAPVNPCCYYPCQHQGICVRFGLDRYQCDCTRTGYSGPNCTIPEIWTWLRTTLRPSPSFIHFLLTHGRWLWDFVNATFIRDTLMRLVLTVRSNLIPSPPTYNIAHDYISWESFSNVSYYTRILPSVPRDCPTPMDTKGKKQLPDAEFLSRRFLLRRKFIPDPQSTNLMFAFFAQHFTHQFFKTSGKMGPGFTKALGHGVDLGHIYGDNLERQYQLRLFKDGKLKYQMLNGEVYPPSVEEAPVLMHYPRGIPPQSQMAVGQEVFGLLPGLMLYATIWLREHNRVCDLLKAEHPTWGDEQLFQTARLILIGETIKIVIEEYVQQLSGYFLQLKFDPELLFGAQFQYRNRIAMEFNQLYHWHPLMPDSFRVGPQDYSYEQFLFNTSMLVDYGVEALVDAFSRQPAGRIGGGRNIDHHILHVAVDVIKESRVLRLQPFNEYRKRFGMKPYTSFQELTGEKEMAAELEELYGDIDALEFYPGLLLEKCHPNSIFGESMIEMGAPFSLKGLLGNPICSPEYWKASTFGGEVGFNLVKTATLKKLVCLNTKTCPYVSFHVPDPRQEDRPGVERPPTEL
Excerpt: as §1
B. Ram Seminal Vesicle Microsomal Cyclooxygenase (RSVM-CO) Assay Protocol
Ram seminal vesicular glands were trimmed of fat, 50 grams diced into 250 mls ice cold 0.1 M potassium phosphate (pH 7.6) buffer and homogenized using a Brinkman Polytron. The suspension was centrifuged 10 minutes at […] (4° C.) and the supernatant filtered through two cheesecloth layers. The filtrate was centrifuged 160 minutes at 105K xg, the supernatant thereof discarded, and the pellet surface rinsed with a small volume of buffer. The pellets were combined in a small volume, briefly homogenized with the Polytron and frozen in 0.5 ml aliquots at -80° C. The protein concentration was about 50 mg/ml.
The thawed enzyme was diluted 1:63 with 0.125 M Na EDTA (pH 8.0) containing 50 μg/ml BSA. A substrate-cofactor premix was prepared with 66 μM ^14 C-arachidonic acid (about 20K cpm/12.5 μl) in 500 μl 0.125 M Na EDTA (pH 8.0) plus 10 μl 50 mM hydroquinone and 10 μl 200 mM glutathione. To each sample well in the 96 well plate, agents dissolved in 0.5 μ DMSO were added, followed by 12.5 μl of the diluted enzyme. After a 4 minute preincubation at room temperature, 12.5 μl of the substrate-cofactor mix was added to start the reaction. The reaction was terminated after 20 minutes at room temperature by adding 25 μl of methanol containing 200 μg PGE2 and 400 μg AA per ml.
The entire reaction mixture was spotted onto a preadsorbent silica gel GF thin layer plate and, after air drying 45 minutes, developed 12 cm in ethyl acetate:glacial acetic acid (99:1).
The developed lanes were scanned for the distribution of radiolabel using a Bioscan Imaging Detector and the integrated peaks compared to standards and controls yielding % inhibition.

PMN5LO % inhibition (5-lipoxygenase; 1 μg/ml)	inhibition at 0.1 µg/mL (cyclooxygenase) [%]	inhibition at 0.33 µg/mL (5-lipoxygenase; 0.33 μg/ml) [%]	inhibition at 1 µg/mL (5-lipoxygenase; 1 μg/ml) [%]	pIC50 (5-lipoxygenase)	inhibition at 0.012 µg/mL (5-lipoxygenase; 0.012 μg/ml) [%]	inhibition at 0.037 µg/mL (5-lipoxygenase; 0.037 μg/ml) [%]	inhibition at 0.11 µg/mL (5-lipoxygenase; 0.11 μg/ml) [%]	Compound	other results
74% and 100%	0	–	–	–	–	–	–	CC(=O)Oc1cc(-c2cccs2)sc1-c1ccccc1	PMN5LO % inhibition (5-lipoxygenase; 0.11 μg/ml): 51% and 100%; PMN5LO % inhibition (5-lipoxygenase; 0.33 μg/ml): 52% and 100%; inhibition at 0.01 µg/mL (cyclooxygenase): 0%; inhibition at 1 µg/mL (cyclooxygenase): 0%
97%	100	85	100	6.19	–	–	–	COc1ccc(-c2sc3c(c2OC(C)=O)CCCC3)cc1	PMN5LO % inhibition (5-lipoxygenase; 0.33 μg/ml): 88%; pIC50 (5-lipoxygenase; unit inferred): 6.42; inhibition at 1 µg/mL (cyclooxygenase): 11%
–	–	–	–	5.60	–	–	–	COc1ccc(-c2sc3c(c2OC(C)=O)Cc2ccccc2-3)cc1	PMN5LO % inhibition (5-lipoxygenase; 0.012 μg/ml): 0%; inhibition at 0.37 µg/mL (5-lipoxygenase; 0.37 μg/ml (so in the source)): 42%
–	–	34	79	–	15	15	17	CC(=O)Oc1cc(-c2ccccc2)sc1-c1ccccc1C	–
–	–	23	38	5.40	13	0	15	c1ccc(-c2ccc(-c3ccccc3)s2)cc1	–
33% and 66%	–	53	–	–	25	6	36	CC(=O)Oc1cc(-c2ccccc2)oc1-c1ccccc1	–
–	–	19	18	–	5	0	1	CC(=O)Oc1csc(-c2ccccc2)c1 [Compound 1]	–
–	–	–	53	~5.52	22	14	0	Oc1c(-c2ccccc2)sc(-c2ccccc2)c1-c1ccccc1 [Compound 2, 3-Hydroxy-2,4,5-triphenylthiophene]	inhibition at 0.3 µg/mL (5-lipoxygenase; 0.3 μg/ml): 0%; inhibition at 10 µg/mL (5-lipoxygenase; 10 μg/ml): 95%; inhibition at 10 µg/mL (cyclooxygenase): 23%
–	13	–	–	7.06 and 7.13	27	57	100	CC(=O)Oc1cc(-c2ccccc2)sc1-c1ccccc1 [Compound 3]	PMN5LO % inhibition (5-lipoxygenase; 0.012 μg/ml): 38%; PMN5LO % inhibition (5-lipoxygenase; 0.037 μg/ml): 56%; inhibition at 0.05 µg/mL (5-lipoxygenase; 0.05 μg/ml): 100%; inhibition at 0.01 µg/mL (cyclooxygenase): 13%; inhibition at 1 µg/mL (cyclooxygenase): 8%; inhibition at 10 µg/mL (cyclooxygenase): 29%
88%	24	98	99	6.96	17	–	–	Oc1cc(-c2ccccc2)sc1-c1ccccc1 [Compound 4, 3-Hydroxy-2,5-diphenylthiophene]	PMN5LO % inhibition (5-lipoxygenase; 0.012 μg/ml): 11%; PMN5LO % inhibition (5-lipoxygenase; 0.11 μg/ml): 97% and 70%; PMN5LO % inhibition (5-lipoxygenase; 0.33 μg/ml): 85%; inhibition at 0.4 µg/mL (cyclooxygenase; 0.4 μg/ml): 18%; inhibition at 1 µg/mL (cyclooxygenase): 6%; inhibition at 2 µg/mL (cyclooxygenase; 2 μg/ml): 46%; inhibition at 10 µg/mL (cyclooxygenase): 92%
–	–	–	38	–	–	–	–	CC(=O)Oc1cc(-c2cccc(C(F)(F)F)c2)sc1-c1ccccc1 [Compound 5]	–
–	–	–	22	–	–	–	–	CCC(=O)Oc1cc(-c2cccc(C(F)(F)F)c2)sc1-c1ccccc1 [Compound 6]	–
10% and 0%	0	–	–	< 5.52	–	–	–	CC(=O)Oc1c(-c2ccccc2)sc(-c2ccccc2)c1-c1ccccc1 [Compound 7]	inhibition at 0.01 µg/mL (cyclooxygenase): 0%; inhibition at 1 µg/mL (cyclooxygenase): 12%; inhibition at 5 µg/mL (cyclooxygenase; 5 μg/ml): 76%
18%	–	–	–	–	–	–	–	CC(=O)Oc1c(-c2ccccc2)sc(-c2ccccc2)c1-c1ccccc1 [Compound 8]	–
–	–	–	13	–	–	–	–	CC(=O)Oc1c(C)sc(-c2ccccc2)c1-c1ccccc1 [Compound 9]	–
58%	60	100	–	6.70	0	–	–	COCC(=O)Oc1cc(-c2ccccc2)sc1-c1ccccc1 [Compound 10]	PMN5LO % inhibition (5-lipoxygenase; 0.037 μg/ml): 28% and 51%; PMN5LO % inhibition (5-lipoxygenase; 0.11 μg/ml): 73%; pIC50 (5-lipoxygenase; unit inferred): 6.96
–	–	100	96	6.92	20	46	96	Cc1ccccc1-c1cc(O)c(-c2ccccc2)s1 [Compound 18, 3-Hydroxy-5-(2-methylphenyl)-2-phenylthiophene]	–
–	–	0	0	–	0	0	0	COc1cc(-c2ccccc2)sc1-c1ccccc1 [Compound 19]	–
–	–	–	–	< 5.52	–	–	–	COc1ccc(-c2sc3c(c2OC(C)=O)CCCc2ccccc2-3)cc1 [Compound 20]	–
–	–	81	87	–	14	19	45	Oc1cc(-c2ccccc2)sc1-c1cccnc1 [Compound 22]	–
